Results published in patent US10548861B2 (Academia Sinica, priority 2015, dated 2020).
Like-named read-outs stand apart in the source and are kept apart here.

Legend:
SVGp12 = experiment: 72 hr cytotoxicity: Astroglia; type: cell-based; conditions: Homo sapiens; SVGp12, 72 hr
[1] = system: MV4;11-GFP/Luciferase cells; experiment: AML xenograft, bioimaging; type: in vivo, NSG mice; conditions: 30 mg/kg every second day x5 from d14; day 28
Text: […] mice were transplanted with 10^5 MV4;11-GFP/Luciferase transduced cells injected i.v. into each of ten male 12 wk-old NSG mice.

Osteosarcoma cell lines = experiment: Cytotoxicity on sarcoma panel; type: cell-based; conditions: Homo sapiens, read-out: IC50
CCD-33Lu = experiment: 72 hr cytotoxicity: Lung fibroblasts; type: cell-based; conditions: Homo sapiens, Fibroblast
H647 (KRAS) = experiment: cells; type: cell-based; conditions: Homo sapiens, NCI-H647
H524 = experiment: 72 hr cytotoxicity: SCLC variant; type: cell-based; conditions: Homo sapiens, NCI-H524
[2] = system: Cutaneous fetal fibroblasts; experiment: 72 hr cytotoxicity: Fetal fibroblasts; type: cell-based; conditions: Homo sapiens, Fibroblast
[3] = system: Jako-1 (JEKO-1-GFP-Luc) mantle cell lymphoma cells; experiment: Mantle cell lymphoma xenograft, bioimaging; type: in vivo, NSG mice
Text: The Jako-1 mantle cell lymphoma cell line was labeled with GFP/Luciferase and 500,000 cells injected intravenously into each of 10 NSG female mice at 12 wks of age.

JURKAT = experiment: Cytotoxicity: T-ALL; type: cell-based; conditions: Homo sapiens
[4] = system: primary Pre-B-ALL-GFP-Lu cells; experiment: Primary Pre-B-ALL xenograft, bioimaging and survival; type: in vivo, NSG mice; conditions: Q10D2x from day 7
Saos-1 = experiment: Cytotoxicity: Osteosarcoma; conditions: Homo sapiens, read-out: cytotoxic activity (IC50)
human B-cell lymphomas = experiment: Cell cycle and DNA repair protein changes; type: cell-based; conditions: B-cell lymphoma
MRC5 = experiment: cells; type: cell-based; conditions: Homo sapiens, MRC5, 72 h
MS-5 (mouse) = experiment: 72 hr cytotoxicity: Adult BM stroma; type: cell-based; conditions: MS-5 murine stroma
[5] = system: A673 Ewing's sarcoma xenografts; experiment: Ewing's sarcoma xenograft; type: in vivo, NSG mice; conditions: 30 mg/kg by tail vein injection
HCC364 (BRAF) = experiment: cells; type: cell-based; conditions: Homo sapiens
SK-MES-1 (KRAS) = experiment: cells; type: cell-based; conditions: Homo sapiens
[6] = system: Desmoplastic small round cell tumor (DSRCT) cell lines; experiment: Cytotoxicity on sarcoma panel; type: cell-based; conditions: Homo sapiens; two DSRCT lines; read-out: IC50 range
[7] = system: normal human, murine or primate cell and tissue types; experiment: MTT / alamar blue cytotoxicity on panel of normal tissues; type: cell-based; conditions: read-out: IC50 range
Ly8 = experiment: Cytotoxicity: DLBCL GCB; conditions: read-out: cytotoxicity IC50, single agent
Experimental: After 72 hours, the cultures were pulsed with Alamar Blue overnight, and the fluorescent intensity of resulted cultures was measured by a Synergy H1 plate-reader (BioTek Inc). […] When human CD34+ cells were used for drug screen, 500˜1,000 cells/well were cultured in the presence of 20 ng/ml KL, 20 ng/ml IL-3, 20 ng/ml G-CSF and 6 units/ml EPO for 7-10 days prior to an addition of Alamar Blue.

CL1-0 = experiment: Cytotoxicity: NSCLC; type: cell-based; conditions: Homo sapiens
[8] = system: GFP/Luciferase-labeled H526; experiment: SCLC xenograft (s.c.), bioimaging; type: in vivo, NSG mice
Text: Xenografts of GFP/Luciferase-labeled H526 were established in groups of ten NSG male mice aged 12 wks by subcutaneous injection of 50,000 tumor cells.

HS5 = experiment: 72 hr cytotoxicity: Adult BM stroma; type: cell-based; conditions: Homo sapiens; HS5, 72 hr
H69 = experiment: 72 hr cytotoxicity: SCLC classic; type: cell-based; conditions: Homo sapiens, NCI-H69
MV4;11 MLL-AF4 + Flt3ITD = experiment: Cytotoxicity: AML line; type: cell-based; conditions: Homo sapiens
SMS-CTR = experiment: Cytotoxicity: Rhabdomyosarcoma (embryonal type); conditions: Homo sapiens
CALU-1 (KRAS) = experiment: cells; type: cell-based; conditions: Homo sapiens
[9] = system: A204 rhabdomyosarcoma xenografts; experiment: Rhabdomyosarcoma xenograft; type: in vivo, Nude mice; conditions: 30 mg/kg alternate days, five doses
[10] = system: MA-10-W51 CB MLL-AF9 + Flt3ITD; experiment: Cytotoxicity: AML HSC-derived; type: cell-based, human; conditions: for IC50: Homo sapiens
Text: • a) Growth factor-dependent & cell density growth dependent cell lines. Human cord blood CD34+ cells transduced with MLL-AF9 gene: MA-10, MA-18. Human bone marrow CD34+ cells transduced with MLL-AF9 gene: MA-23. Human cord blood CD34+ cells transduced with MLL-AF9 and N-ras genes: MA-9.3, MA-9.6. • b) Growth factor independent leukemic cell lines. Human MA-10 cells transduced with Flt3 ITD (W51) were adapted to in vitro proliferation without growth factors (Moore Laboratory).

[11] = for Microsome stability, turnover %: 60 mins, standards 2 μM
REC-1 = experiment: Cytotoxicity: Mantle Cell Lymphoma; conditions: Homo sapiens, Rec1
BCI-NSI hTERT = experiment: 72 hr cytotoxicity: Bronchial epithelium; type: cell-based; conditions: Homo sapiens, 72 h

In the case of `CN(C)CCNC(=O)c1cccc(NC(=O)Nc2ccc(N(CCCl)CCCl)cc2)c1.Cl` [BO-1055, ureidomustine], the IC50 (SVGp12) is reported as no less than 10 µM, the tumor by bioimaging [1] is reported as “no significantly detectable tumor in any of the five BO-1055 treated mice” and the IC50 (Osteosarcoma cell lines; one highly sensitive osteosarcoma line) is reported as 0.45 µM. The IC50 (Osteosarcoma cell lines; one moderately sensitive osteosarcoma line) was 2.67 µM, the IC50 (CCD-33Lu) was 34.5 µM and the IC50 (H647 (KRAS)) was no less than 10 µM. The IC50 (H524) was 0.34 ± 0.01 µM, the IC50 [2] was no less than 10 µM and the tumor ([3]; 30 mg/kg i.v. every other day for 10 days from day 15, 7 wks) was “no grossly observable tumor in any of the five mice”. For the same compound, the survival ([3]; 75 days) was “all alive at 75 days”, the IC50 (JURKAT) was 2.5 µM and the “survival longer than control-treated group” value [4] was roughly 100 days. The IC50 (Saos-1) was no less than 100 µM, the “cell cycle / protein changes” value (human B-cell lymphomas) was “accumulation of cells in S-phase and up-regulation of proteins involved in DNA repair” and the IC50 (MRC5) was no less than 10 µM. The IC50 (MS-5 (mouse)) was greater than 10 µM, the tumor response [5] was “complete regression of tumor growth” and the IC50 (HCC364 (BRAF)) was 4 µM. For the same compound, the IC50 (SK-MES-1 (KRAS)) was no less than 10 µM, the IC50 [6] was 2.41 to 3.74 µM and the IC50 ([7]; Epithelial cell) was 10 to 40 µM. For the same compound, the IC50 ([7]; HS-27A) was 20 to 35.3 µM, the IC50 [7] was 8.8 to 9.48 µM and the IC50 (Ly8) was 0.394 µM. The IC50 (CL1-0) was 14.6 µM, the tumor by bioimaging ([8]; 30 mg/kg i.v. every second day, day 12 to 30) was “no tumor was detectable through d26” and the “difference in total photon emission, treated vs control” value ([8]; between day 20 and 30) was “two log difference”. The tumor-free treated mice ([8]; d30) was 3/5, the IC50 (HS5) was no less than 20 µM and the IC50 (H69) was less than 20 µM. For the same compound, the IC50 (MV4;11 MLL-AF4 + Flt3ITD) was 0.3 µM, the IC50 (SMS-CTR) was no less than 10 µM and the IC50 (SMS-CTR; read-out: cytotoxic activity (IC50)) was no less than 10 µM. For the same compound, the IC50 (CALU-1 (KRAS)) was no less than 20 µM, the tumor response [9] was “Complete regression of tumors” and the IC50 ([10]; MA10 W51 growth factor (hGM-CSF or hIL-3) dependent sub-line) was 0.28 to 0.4 µM. The IC50 ([10]; MA10 W51 growth factor independent sub-line) was roughly 10 µM, the IC50 ([10]; MLL-AF9, MA-10-W51) was 0.4 µM and the “cytotoxicity (in words)” value ([10]; growth factor dependent MA-10-W51, FIG. 9) was “highly cytotoxic”. The “Microsome stability, turnover %” value [11] was 75%, the “Microsome stability, turnover %” value ([11]; listed as ureidomustine) was 75% (60 mins turnover %) and the “intrinsic clearance (in words)” value ([11]; microsomes) was “High intrinsic clearance”. The IC50 (REC-1) was greater than 10 µM and the IC50 (BCI-NSI hTERT) was 40 µM.
